The text below walks through data of article PMC10439230 (Scientific Reports, 2023).

Molecules are shown by their SMILES.

Assay [1] relates to HuCCA-1 (cholangiocarcinoma derived from a patient). The assay is described as follows: Cytotoxic activity assay (MTT). The assay is classed as cell-based, human. Particulars: for IC50: Homo sapiens, HuCC-A1, 48 h exposure, MTT, read-out: Cell lines, IC50 (μM) HuCCA-1; for Selectivity Index (SI) values HuCCA-1: SI = IC50 normal cell (MRC-5)/ IC50 cancer cell. An excerpt: (§1) The synthetic compounds were screened for their cytotoxic activity using standard MTT or XTT methods[30] against a panel of nine human cancer cell lines and one normal cell line, including MDA-MB-231 (triple-negative breast cancer), T-47D (hormone-dependent breast cancer), HepG2 (hepatocellular carcinoma), A549 (lung adenocarcinoma), H69AR (multidrug-resistant small cell lung carcinoma), HuCCA-1 (cholangiocarcinoma derived from a patient), HeLa (cervical carcinoma), and two leukemia cell lines, HL-60 (acute promyelocytic leukemia) and MOLT-3 (T cell acute lymphoblastic leukemia). MRC-5 normal embryonic lung fibroblast cell line was used to represent normal cells. Chemotherapeutic drugs, doxorubicin and etoposide, were used as positive controls.
(§2) The cells were seeded into 96-well plates (100 µL for adherent cells and 75 µL for suspended cells) at a density of 5000–20,000 cells per well, depending on their growth rates. Adherent and suspended cells were then allowed to grow at 37 °C with 95% humidity and 5% CO2 for 24 h and 30 min, respectively. The cytotoxicity assay was initiated by adding an equal volume of cell culture medium containing tested compound at predetermined concentrations. Following 48 h of exposure, cell viability was determined using MTT assay for adherent cells[51],[52]or XTT assay for suspeended cells. Briefly, for adherent cells, 100 µL of the MTT reagent was added to each well, and the microtiter plates were further incubated for 2.5–4 h. The medium was subsequently replaced with 100 µL of DMSO to dissolve the purple formazan before the absorbance at 550 nm was measured using a microplate reader (a SpectraMax Plus 384) with a reference wavelength of 650 nm. For suspended cells, 75 µL of the XTT reagent was added to each well, and the cells were further incubated for 4 h. Afterwards, the absorbance of orange formazan at 492 nm was measured with a reference wavelength of 690 nm using a microplate reader.

Assay [2] concerns H69AR (multidrug-resistant small cell lung carcinoma). The assay is described as follows: Cytotoxic activity assay (MTT). The assay is classed as cell-based, human. Particulars: for IC50: Homo sapiens, H69AR, 48 h exposure, MTT, read-out: Cell lines, IC50 (μM) H69AR; for Selectivity Index (SI) values H69AR: SI = IC50 normal cell (MRC-5)/ IC50 cancer cell.
Description: as §1, §2

The subject of assay [3] is A549 (lung adenocarcinoma). The assay is described as follows: Cytotoxic activity assay (MTT). Type of assay: cell-based, human. The conditions noted are these: for IC50: Homo sapiens, A549, 48 h exposure, MTT, read-out: Cell lines, IC50 (μM) A549; for Selectivity Index (SI) values A549: SI = IC50 normal cell (MRC-5)/ IC50 cancer cell.
Description: as §1, §2

For assay [4], the system named is HeLa (cervical carcinoma). The assay is described as follows: Cytotoxic activity assay (MTT). The assay is classed as cell-based, human. The conditions noted are these: for IC50: Homo sapiens, 48 h exposure, MTT, read-out: Cell lines, IC50 (μM) HeLa; for Selectivity Index (SI) values HeLa: SI = IC50 normal cell (MRC-5)/ IC50 cancer cell.
Description: as §1, §2

Assay [5] concerns T-47D (hormone-dependent breast cancer). The assay is described as follows: Cytotoxic activity assay (MTT). Particulars: for IC50: Homo sapiens, T47D, 48 h exposure, MTT, read-out: Cell lines, IC50 (μM) T47-D; for Selectivity Index (SI) values T47-D: SI = IC50 normal cell (MRC-5)/ IC50 cancer cell. The assay is classed as cell-based, human.
Description: as §1, §2

The subject of assay [6] is HepG2 (hepatocellular carcinoma). The assay is described as follows: Cytotoxic activity assay (MTT). Particulars: for IC50: Homo sapiens, HepG2, 48 h exposure, MTT, read-out: Cell lines, IC50 (μM) HepG2; for Selectivity Index (SI) values HepG2: SI = IC50 normal cell (MRC-5)/ IC50 cancer cell. The assay is classed as cell-based, human.
Description: as §1, §2

In assay [7] the test system is MDA-MB-231 (triple-negative breast cancer). The assay is described as follows: Cytotoxic activity assay (MTT). The conditions noted are these: for IC50: Homo sapiens, MDA-MB-231, 48 h exposure, MTT, read-out: Cell lines, IC50 (μM) MDA-MB-231; for Selectivity Index (SI) values MDA-MB-231: SI = IC50 normal cell (MRC-5)/ IC50 cancer cell. Type of assay: cell-based, human.
Description: as §1, §2

For assay [8], the system named is HL-60 (acute promyelocytic leukemia). The assay is described as follows: Cytotoxic activity assay (XTT). Type of assay: cell-based, human. Particulars: for IC50: Homo sapiens, HL-60, 48 h exposure, XTT, read-out: Cell lines, IC50 (μM) HL-60; for Selectivity Index (SI) values HL-60: SI = IC50 normal cell (MRC-5)/ IC50 cancer cell.
Description: as §1, §2
For orientation: Tetrazolium dyes change colour on reduction, which living cells bring about.

Assay [9] has as its system MOLT-3 (T cell acute lymphoblastic leukemia). The assay is described as follows: Cytotoxic activity assay (XTT). The conditions noted are these: for IC50: Homo sapiens, MOLT-3, 48 h exposure, XTT, read-out: Cell lines, IC50 (μM) MOLT-3; for Selectivity Index (SI) values MOLT-3: SI = IC50 normal cell (MRC-5)/ IC50 cancer cell. The assay is classed as cell-based, human.
Description: as §1, §2

The test system of assay [10] is MRC-5 normal embryonic lung fibroblast cell line. The assay is described as follows: Cytotoxic activity assay (MTT), normal cells. Type of assay: cell-based. Particulars: Homo sapiens, MRC5, 48 h exposure, read-out: Cell lines, IC50 (μM) MRC-5.
Description: as §1, §2

The term IC50 denotes the midpoint of a concentration-inhibition curve.

As to `C#CCNC(=O)/C=C(\C)CC[C@H]1C(=C)CC[C@H]2C(C)(C)CCC[C@]12C` [Compound 4c, (E)-3-Methyl-N-(prop-2-yn-1-yl)-5-((1S,4aS,8aS)-5,5,8a-trimethyl-2-methylenedecahydronaphthalen-1-yl)pent-2-enamide], in assay [1], the 50% inhibitory concentration (IC50) was determined as 52.7 ± 0.11 µM and the “Selectivity Index (SI) values HuCCA-1” value worked out at 0.9. Besides, in assay [2], the IC50 is 113 ± 1.35 µM and the “Selectivity Index (SI) values H69AR” value is recorded as 0.4. Moreover, in [3], the IC50 was 54.1 ± 1.17 µM and the “Selectivity Index (SI) values A549” value is 0.9. Besides, in assay [4], the IC50 was 28.1 ± 0.93 µM and the “Selectivity Index (SI) values HeLa” value came out at 1.7. Moreover, in [5], the IC50 came out at 76.6 ± 4.68 µM and the “Selectivity Index (SI) values T47-D” value stood at 0.6. Moreover, in [6], the IC50 came to 85.06 ± 0.61 µM and the “Selectivity Index (SI) values HepG2” value is listed as 0.6. For the same compound, in [7], the IC50 was found to be 27.5 ± 0.62 µM and the “Selectivity Index (SI) values MDA-MB-231” value is recorded as 1.8. Moreover, in [8], the IC50 is 24.13 ± 0.08 µM and the “Selectivity Index (SI) values HL-60” value is on record as 2.0. Further, in assay [9], the IC50 turned out to be 23.2 ± 1.03 µM and the “Selectivity Index (SI) values MOLT-3” value turned out to be 2.1. The IC50 in assay [10] stood at 48.1 ± 0.62 µM.

With `C=C1CC[C@H]2C(C)(C)CCC[C@]2(C)[C@H]1CC/C(C)=C/C(=O)NCCCCCCCC` [Compound 4d, (E)-3-Methyl-N-octyl-5-((1S,4aS,8aS)-5,5,8a-trimethyl-2-methylenedecahydronaphthalen-1-yl)pent-2-enamide], the IC50 in [1], in assay [2], in assay [3], in assay [4], in assay [5] and in assay [6] was > 120 µM throughout. Also, the IC50 in assay [7], in assay [8], in assay [9] and in assay [10] was > 120 µM throughout. Moreover, the “Selectivity Index (SI) values HuCCA-1” value in [1] was determined as 1.0. Moreover, the “Selectivity Index (SI) values H69AR” value in [2] amounted to 1.0. Moreover, the “Selectivity Index (SI) values A549” value in assay [3] was determined as 1.0. Also, in assay [4], the “Selectivity Index (SI) values HeLa” value was 1.0. Moreover, the “Selectivity Index (SI) values T47-D” value in assay [5] is recorded as 1.0. Further, the “Selectivity Index (SI) values HepG2” value in [6] was 1.0. For the same compound, the “Selectivity Index (SI) values MDA-MB-231” value in assay [7] is 1.0. Further, the “Selectivity Index (SI) values HL-60” value in assay [8] stood at 1.0. Moreover, the “Selectivity Index (SI) values MOLT-3” value in [9] was 1.0.

For `C=C1CC[C@H]2C(C)(C)CCC[C@]2(C)[C@H]1CC/C(C)=C/C(=O)Nc1ccccc1` [Compound 4e, (E)-3-Methyl-N-phenyl-5-((1S,4aS,8aS)-5,5,8a-trimethyl-2-methylene-decahydronaphthalen-1-yl)pent-2-enamide], in assay [1], the IC50 is > 120 µM and the “Selectivity Index (SI) values HuCCA-1” value amounted to 1.0. For the same compound, in assay [2], the IC50 was > 120 µM and the “Selectivity Index (SI) values H69AR” value is on record as 1.0. For the same compound, in assay [3], the IC50 stood at 46.9 ± 1.28 µM and the “Selectivity Index (SI) values A549” value was 2.8. Further, in assay [4], the IC50 amounted to 98.11 ± 0.08 µM and the “Selectivity Index (SI) values HeLa” value is listed as 1.3. In addition, in [5], the IC50 is > 120 µM and the “Selectivity Index (SI) values T47-D” value was determined as 1.0. Also, in [6], the concentration for half-maximal inhibition (IC50) was > 120 µM and the “Selectivity Index (SI) values HepG2” value was determined as 1.0. In [7], the IC50 was > 120 µM and the “Selectivity Index (SI) values MDA-MB-231” value was found to be 1.0. Also, in assay [8], the IC50 is 60.6 ± 4.97 µM and the “Selectivity Index (SI) values HL-60” value came to 2.2. In assay [9], the IC50 was found to be 25.9 ± 1.88 µM and the “Selectivity Index (SI) values MOLT-3” value was 5.1. In addition, the IC50 in assay [10] was > 120 µM.
